{"source": "BigSolDB 2.1"}
{"smiles": "CC(=O)O[C@H]1CC[C@@]2(C)C(=CC[C@@H]3[C@@H]2CC[C@]2(C)C(C(C)=O)=CC[C@@H]32)C1", "values": [{"measurement": "solubility (mole fraction)", "setting": "in acetone, 278.55 K", "value": 0.00427}, {"measurement": "solubility (mole fraction)", "setting": "in acetone, 281.35 K", "value": 0.0048}, {"measurement": "solubility (mole fraction)", "setting": "in acetone, 284.75 K", "value": 0.00538}, {"measurement": "solubility (mole fraction)", "setting": "in acetone, 288.65 K", "value": 0.00622}, {"measurement": "solubility (mole fraction)", "setting": "in acetone, 291.75 K", "value": 0.00678}, {"measurement": "solubility (mole fraction)", "setting": "in acetone, 293.95 K", "value": 0.00731}, {"measurement": "solubility (mole fraction)", "setting": "in acetone, 296.75 K", "value": 0.008}, {"measurement": "solubility (mole fraction)", "setting": "in acetone, 299.05 K", "value": 0.00875}, {"measurement": "solubility (mole fraction)", "setting": "in acetone, 301.55 K", "value": 0.00955}, {"measurement": "solubility (mole fraction)", "setting": "in acetone, 304.25 K", "value": 0.0105}, {"measurement": "solubility (mole fraction)", "setting": "in cyclohexane, 291.95 K", "value": 0.00212}, {"measurement": "solubility (mole fraction)", "setting": "in cyclohexane, 300.25 K", "value": 0.00314}, {"measurement": "solubility (mole fraction)", "setting": "in cyclohexane, 302.75 K", "value": 0.00363}, {"measurement": "solubility (mole fraction)", "setting": "in cyclohexane, 305.75 K", "value": 0.00426}, {"measurement": "solubility (mole fraction)", "setting": "in cyclohexane, 309.25 K", "value": 0.0049}, {"measurement": "solubility (mole fraction)", "setting": "in cyclohexane, 312.95 K", "value": 0.00574}, {"measurement": "solubility (mole fraction)", "setting": "in cyclohexane, 315.9 K", "value": 0.00662}, {"measurement": "solubility (mole fraction)", "setting": "in cyclohexane, 320.15 K", "value": 0.00767}, {"measurement": "solubility (mole fraction)", "setting": "in cyclohexane, 322.95 K", "value": 0.00878}, {"measurement": "solubility (mole fraction)", "setting": "in cyclohexane, 327.85 K", "value": 0.0112}, {"measurement": "solubility (mole fraction)", "setting": "in cyclohexane, 332.25 K", "value": 0.0135}, {"measurement": "solubility (mole fraction)", "setting": "in cyclohexane, 336.45 K", "value": 0.0162}, {"measurement": "solubility (mole fraction)", "setting": "in cyclohexane, 340.35 K", "value": 0.019}, {"measurement": "solubility (mole fraction)", "setting": "in ethanol, 285 K", "value": 0.00103}, {"measurement": "solubility (mole fraction)", "setting": "in ethanol, 289.85 K", "value": 0.00128}, {"measurement": "solubility (mole fraction)", "setting": "in ethanol, 292.6 K", "value": 0.00144}, {"measurement": "solubility (mole fraction)", "setting": "in ethanol, 294.95 K", "value": 0.00162}, {"measurement": "solubility (mole fraction)", "setting": "in ethanol, 297.65 K", "value": 0.00185}, {"measurement": "solubility (mole fraction)", "setting": "in ethanol, 300.95 K", "value": 0.0021}, {"measurement": "solubility (mole fraction)", "setting": "in ethanol, 304.55 K", "value": 0.0024}, {"measurement": "solubility (mole fraction)", "setting": "in ethanol, 307.55 K", "value": 0.00277}, {"measurement": "solubility (mole fraction)", "setting": "in ethanol, 310.55 K", "value": 0.00319}, {"measurement": "solubility (mole fraction)", "setting": "in ethanol, 314.15 K", "value": 0.00371}, {"measurement": "solubility (mole fraction)", "setting": "in ethanol, 317.55 K", "value": 0.00432}, {"measurement": "solubility (mole fraction)", "setting": "in ethanol, 321.35 K", "value": 0.00503}, {"measurement": "solubility (mole fraction)", "setting": "in ethanol, 324.55 K", "value": 0.00583}, {"measurement": "solubility (mole fraction)", "setting": "in ethanol, 327.05 K", "value": 0.0065}, {"measurement": "solubility (mole fraction)", "setting": "in methanol, 282.75 K", "value": 0.000402}, {"measurement": "solubility (mole fraction)", "setting": "in methanol, 286.85 K", "value": 0.000491}, {"measurement": "solubility (mole fraction)", "setting": "in methanol, 291.95 K", "value": 0.000632}, {"measurement": "solubility (mole fraction)", "setting": "in methanol, 295.15 K", "value": 0.000779}, {"measurement": "solubility (mole fraction)", "setting": "in methanol, 299.95 K", "value": 0.000965}, {"measurement": "solubility (mole fraction)", "setting": "in methanol, 303.85 K", "value": 0.00112}, {"measurement": "solubility (mole fraction)", "setting": "in methanol, 309.25 K", "value": 0.00142}, {"measurement": "solubility (mole fraction)", "setting": "in methanol, 312.15 K", "value": 0.0016}, {"measurement": "solubility (mole fraction)", "setting": "in methanol, 315.55 K", "value": 0.00185}, {"measurement": "solubility (mole fraction)", "setting": "in methanol, 318.35 K", "value": 0.00215}, {"measurement": "solubility (mole fraction)", "setting": "in methanol, 320.05 K", "value": 0.00231}]}
